Target: human NaV subtype, like NaV 1.7 (Homo sapiens, UniProt Q15858)
Test: E-VIPR optical membrane potential assay with electrical stimulation
Format: cell-based
Conditions: active against one or more sodium channels; Table 3 does not name the assay or NaV subtype; read-out: Binned Activity Data (IC50)
Text: Assays for Detecting and Measuring NaV Inhibition Properties of Compound E-VIPR Optical Membrane Potential Assay Method with Electrical Stimulation
Sodium channels are voltage-dependent proteins that can be activated by inducing membrane voltage changes by applying electric fields. The electrical stimulation instrument and methods of use are described in Ion Channel Assay Methods PCT/US01/21652, herein incorporated by reference and are referred to as E-VIPR. The instrument comprises a microtiter plate handler, an optical system for exciting the coumarin dye while simultaneously recording the coumarin and oxonol emissions, a waveform generator, a current- or voltage-controlled amplifier, and a device for inserting electrodes in well. Under integrated computer control, this instrument passes user-programmed electrical stimulus protocols to cells within the wells of the microtiter plate.
24 hours before the assay on E-VIPR, HEK cells expressing human NaV subtype, like NaV 1.7, are seeded in 384-well poly-lysine coated plates at 15,000-20,000 cells per well. Other subtypes are performed in an analogous mode in a cell line expressing the NaV of interest. HEK cells are grown in media (exact composition is specific to each cell type and NaV subtype) supplemented with 10% FBS (Fetal Bovine Serum, qualified; GibcoBRL #16140-071) and 1% Pen-Strep (Penicillin-Streptomycin; GibcoBRL #15140-122). Cells are grown in vented cap flasks, in 90% humidity and 10% CO2, to 100% confluence. They are usually split by trypsinization 1:10 or 1:20, depending on scheduling needs, and grown for 2-3 days before the next split.
Bath 1 buffer. Glucose 10 mM (1.8 g/L), Magnesium Chloride (Anhydrous), 1 mM (0.095 g/L), Calcium Chloride, 2 mM (0.222 g/L), HEPES 10 mM (2.38 g/L), Potassium Chloride, 4.5 mM (0.335 g/L), Sodium Chloride 160 mM (9.35 g/L).
Hexyl Dye Solution: Bath 1 Buffer+0.5% β-cyclodextrin (make this prior to use, Sigma #C4767), 8 μM CC2-DMPE+2.5 μM DiSBAC6(3). To make the solution Add volume of 10% Pluronic F127 stock equal to volumes of CC2-DMPE+DiSBAC6(3). The order of preparation is first mix Pluronic and CC2-DMPE, then add DiSBAC6(3) while vortexing, then add Bath 1+β-Cyclodextrin.
1) Pre-spot compounds (in neat DMSO) into compound plates. Vehicle control (neat DMSO), the positive control (20 mM DMSO stock tetracaine, 125 μM final in assay) and test compounds are added to each well at 160× desired final concentration in neat DMSO. Final compound plate volume will be 80 μL (80-fold intermediate dilution from 1 μL DMSO spot; 160-fold final dilution after transfer to cell plate). Final DMSO concentration for all wells in assay is 0.625%.
2) Prepare Hexyl Dye Solution.
3) Prepare cell plates. On the day of the assay, medium is aspirated and cells are washed three times with 100 μL of Bath 1 Solution, maintaining 25 μL residual volume in each well.
4) Dispense 25 μL per well of Hexyl Dye Solution into cell plates. Incubate for 20-35 minutes at room temp or ambient conditions.
5) Dispense 80 μL per well of Bath 1 into compound plates. Acid Yellow-17 (1 mM) is added and Potassium Chloride can be altered from 4.5 to 20 mM depending on the NaV subtype and assay sensitivity.
6) Wash cell plates three times with 100 μL per well of Bath1, leaving 25 μL of residual volume. Then transfer 25 uL per well from Compound Plates to Cell Plates. Incubate for 20-35 minutes at room temp/ambient condition
7) Read Plate on E-VIPR. Use the current-controlled amplifier to deliver stimulation wave pulses for typically 9 seconds and a scan rate of 400 Hz. A pre-stimulus recording is performed for 0.5 seconds to obtain the un-stimulated intensities baseline. The stimulatory waveform is applied for 9 seconds followed by 0.5 seconds of post-stimulation recording to examine the relaxation to the resting state.

human NaV subtype, like NaV 1.7, sequence (Q15858 whole entry): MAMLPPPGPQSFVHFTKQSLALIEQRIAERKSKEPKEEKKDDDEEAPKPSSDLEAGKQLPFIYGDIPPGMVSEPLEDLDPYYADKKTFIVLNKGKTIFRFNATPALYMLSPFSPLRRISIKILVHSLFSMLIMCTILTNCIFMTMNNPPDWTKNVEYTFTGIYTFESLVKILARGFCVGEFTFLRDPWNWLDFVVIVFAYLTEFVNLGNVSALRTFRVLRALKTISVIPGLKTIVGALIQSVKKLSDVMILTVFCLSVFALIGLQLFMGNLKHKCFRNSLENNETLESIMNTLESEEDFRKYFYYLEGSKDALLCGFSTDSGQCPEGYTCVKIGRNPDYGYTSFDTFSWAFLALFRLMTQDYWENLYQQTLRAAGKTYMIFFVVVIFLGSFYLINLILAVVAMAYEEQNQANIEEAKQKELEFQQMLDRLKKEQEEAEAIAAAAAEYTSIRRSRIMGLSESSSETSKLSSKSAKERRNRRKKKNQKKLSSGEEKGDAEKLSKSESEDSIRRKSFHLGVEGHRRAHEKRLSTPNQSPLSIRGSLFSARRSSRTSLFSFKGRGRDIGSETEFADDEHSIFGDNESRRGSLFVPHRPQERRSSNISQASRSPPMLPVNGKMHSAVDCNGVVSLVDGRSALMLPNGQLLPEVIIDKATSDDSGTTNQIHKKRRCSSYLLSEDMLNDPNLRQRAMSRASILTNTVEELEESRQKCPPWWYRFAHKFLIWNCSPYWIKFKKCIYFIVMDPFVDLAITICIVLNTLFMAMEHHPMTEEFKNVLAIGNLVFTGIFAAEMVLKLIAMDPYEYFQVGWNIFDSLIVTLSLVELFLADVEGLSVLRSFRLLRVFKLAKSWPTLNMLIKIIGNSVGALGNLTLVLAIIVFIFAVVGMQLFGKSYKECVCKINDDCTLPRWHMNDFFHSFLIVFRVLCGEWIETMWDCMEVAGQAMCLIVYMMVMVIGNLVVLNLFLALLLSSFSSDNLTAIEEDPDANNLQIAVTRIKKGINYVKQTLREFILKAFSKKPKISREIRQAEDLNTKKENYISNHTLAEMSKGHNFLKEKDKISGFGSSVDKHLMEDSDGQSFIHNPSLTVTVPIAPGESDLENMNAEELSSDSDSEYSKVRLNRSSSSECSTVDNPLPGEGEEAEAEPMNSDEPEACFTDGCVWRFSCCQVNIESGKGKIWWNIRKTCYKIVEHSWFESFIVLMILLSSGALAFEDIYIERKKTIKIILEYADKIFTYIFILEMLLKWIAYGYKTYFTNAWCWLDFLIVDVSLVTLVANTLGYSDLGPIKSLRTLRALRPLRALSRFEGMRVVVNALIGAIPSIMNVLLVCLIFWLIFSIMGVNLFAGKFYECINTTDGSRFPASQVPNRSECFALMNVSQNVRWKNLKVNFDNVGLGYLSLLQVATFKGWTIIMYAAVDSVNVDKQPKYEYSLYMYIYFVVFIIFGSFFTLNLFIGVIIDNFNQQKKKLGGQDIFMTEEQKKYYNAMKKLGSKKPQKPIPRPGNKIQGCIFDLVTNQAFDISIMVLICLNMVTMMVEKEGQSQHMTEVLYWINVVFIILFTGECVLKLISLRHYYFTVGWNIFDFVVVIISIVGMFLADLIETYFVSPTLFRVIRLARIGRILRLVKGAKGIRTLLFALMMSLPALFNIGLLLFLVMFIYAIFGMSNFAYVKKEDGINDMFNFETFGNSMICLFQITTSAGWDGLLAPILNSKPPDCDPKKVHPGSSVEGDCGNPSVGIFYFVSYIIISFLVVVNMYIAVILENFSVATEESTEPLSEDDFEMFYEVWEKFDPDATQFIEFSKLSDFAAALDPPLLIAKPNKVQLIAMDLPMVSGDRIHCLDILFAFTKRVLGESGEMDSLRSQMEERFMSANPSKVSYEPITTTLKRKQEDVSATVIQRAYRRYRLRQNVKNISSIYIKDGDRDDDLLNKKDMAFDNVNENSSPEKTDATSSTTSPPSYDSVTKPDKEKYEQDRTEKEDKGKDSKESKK

| IC50 [nM] | SMILES |
| --- | --- |
| 2000 to 5000 | CN1CCn2c(C(=O)C(F)(F)F)ccc2C12CCN(C(=O)c1ccc(C(C)(C)O)cc1)CC2 [Compound 358] |
| ≤ 2000 | CN1CCn2c(ccc2C(F)(F)C(F)(F)F)C12CCN(C(=O)c1ccc(C3(O)CCCC3)cc1)CC2 [Compound 587] |
| ≤ 2000 | CC(=O)c1ccc2n1CCN(C)C21CCN(C(=O)c2ccc(CC(C)C)cc2)CC1 [Compound 5] |
| ≤ 2000 | Cc1cc(C(=O)N2CCC3(CC2)c2c(F)cc(C(F)(F)F)n2CCN3C)ccc1OCCCO [Compound 249] |
| 2000 to 5000 | COc1ccc(C(=O)N2CCC3(CC2)c2ccc(C(=O)C(F)(F)F)n2C(C)(C)CN3C)cc1C [Compound 223] |
| > 5000 | Cc1cc(C(=O)N2CCC3(CC2)c2ccc(C(=O)C(F)(F)F)n2CCN3C)ccc1-c1c[nH]nc1C(F)(F)F [Compound 303] |
| ≤ 2000 | CCN1CCn2c(C(F)(F)F)ccc2C12CCN(C(=O)c1ccc(OC(C)C)c(OC)c1)CC2 [Compound 167] |
| ≤ 2000 | CC(C)Oc1ccc(C(=O)N2CCC3(CC2)c2ccc(C(F)(F)F)n2CCN3C)cc1 [Compound 488] |
| ≤ 2000 | CCc1ccc(C(=O)N2CCC3(CC2)c2ccc(C(F)(F)F)n2CCN3C)cc1OC [Compound 629] |
| > 5000 | COc1ncc(F)cc1C(=O)N1CCC2(CC1)c1ccc(C(F)(F)F)n1CCN2C [Compound 605] |
| ≤ 2000 | COc1cc(C(=O)N2CCC3(CC2)NCCn2c(C(F)(F)F)ccc23)ccc1C(C)(C)CO [Compound 133] |
| 2000 to 5000 | CN1CCn2c(Cl)ccc2C12CCN(C(=O)c1ccc(Oc3ccccc3)cc1)CC2 [Compound 406] |
| ≤ 2000 | CN1CCn2c(ccc2C(F)(F)C(F)(F)F)C12CCN(C(=O)c1ccc(S(=O)(=O)NC3CC3)cc1)CC2 [Compound 289] |
| ≤ 2000 | CCS(=O)(=O)c1ccc(C(=O)N2CCC3(CC2)c2ccc(C(F)(F)F)n2CCN3C)cc1C [Compound 298] |
| 2000 to 5000 | CCNS(=O)(=O)c1ccc(C(=O)N2CCC3(CC2)c2ccc(Cl)n2CCN3C)cc1 [Compound 24] |
| ≤ 2000 | CN1CCn2c(C(F)(F)F)cc(F)c2C12CCN(C(=O)c1ccc(S(=O)(=O)C(F)F)cc1)CC2 [Compound 23] |
| ≤ 2000 | CCOc1cc(C(=O)N2CCC3(CC2)c2ccc(C(F)(F)F)n2CCN3C)ccc1OC [Compound 730] |
| ≤ 2000 | Cc1nc(C(=O)N2CCC3(CC2)c2c(F)cc(C(F)(F)F)n2CCN3C)ccc1OC(C)C [Compound 206] |
| ≤ 2000 | CN1CCn2c(C(=O)C(F)(F)F)ccc2C12CCN(C(=O)c1ccc(OC3CCOCC3)cc1)CC2 [Compound 645] |

| IC50 [nM] | SMILES |
| --- | --- |
| 2000 to 5000 | CN1CCn2c(Cl)ccc2C12CCN(C(=O)c1ccc(OCC3CC3)cc1)CC2 [Compound 147] |
| ≤ 2000 | COc1cc(C(=O)N2CCC3(CC2)c2cc(C(F)(F)F)c(C(F)(F)F)n2CCN3C)ccc1OC(C)C [Compound 48] |
| ≤ 2000 | CN1CCn2c(C(=O)C3(C)CC3)ccc2C12CCN(C(=O)c1ccc(COCCC(F)(F)F)cc1)CC2 [Compound 585] |
| ≤ 2000 | CC(C)Oc1ccc(C(=O)N2CCC3(CC2)NCC(C)n2c(C(=O)C(F)(F)F)ccc23)cc1Cl (centres unmarked) [Compound 324] |
| ≤ 2000 | CN1CCn2c(C(F)(F)F)ccc2C12CCN(C(=O)c1ccccc1Oc1ccccc1)CC2 [Compound 27] |
| ≤ 2000 | CN1CCn2c(C(=O)C(C)(C)C)ccc2C12CCN(C(=O)c1ccc(O)c(Cl)c1)CC2 [Compound 641] |
| > 5000 | CN1CCn2c(C(F)(F)F)ccc2C12CCN(C(=O)c1ccc(Cl)cc1)CC2 [Compound 403] |
| > 5000 | CN1CCn2c(Cl)ccc2C12CCN(C(=O)c1ccc(-c3ccccc3)cc1)CC2 [Compound 104] |
| > 5000 | Cc1cc(C(=O)N2CCC3(CC2)c2ccc(C(F)(F)F)n2CCN3C(=O)N(C)C)ccc1C(C)(C)O [Compound 634] |
| ≤ 2000 | CCCOc1ccc(C(=O)N2CCC3(CC2)NCCn2c(C(F)(F)F)ccc23)cc1OC [Compound 550] |
| ≤ 2000 | COc1ccc(C(=O)N2CCC3(CC2)c2ccc(C(=O)C(F)(F)F)n2CCN3C)nc1C [Compound 746] |
| ≤ 2000 | CN1CCn2c(C(=O)C(F)(F)F)ccc2C12CCN(C(=O)c1ccc(C(C)(C)C)cc1)CC2 [Compound 12] |
| ≤ 2000 | CN1CCn2c(C(=O)C(F)(F)F)ccc2C12CCN(C(=O)c1ccc(C3CCCCC3)cc1)CC2 [Compound 101] |
| ≤ 2000 | CC(=O)c1ccc2n1C(C)(C)CN(C)C21CCN(C(=O)c2ccc(OC(C)C)c(C)c2)CC1 [Compound 174] |
| ≤ 2000 | CC(C)Oc1ccc(C(=O)N2CCC3(CC2)c2ccc(C(F)(F)C(F)(F)F)n2CCN3C)cc1CO [Compound 461] |
| > 5000 | CCC(C)(C)c1ccc(C(=O)N2CCC3(CC2)c2ccc(C(C)=O)n2CCN3C)cc1 [Compound 67] |
| ≤ 2000 | CC[C@H](C)Oc1ccc(C(=O)N2CCC3(CC2)c2ccc(C(F)(F)F)n2CCN3C)cc1OC [Compound 525] |
| ≤ 2000 | C=C(C)Oc1ccc(C(=O)N2CCC3(CC2)c2ccc(C(F)(F)F)n2CCN3C)cc1OC [Compound 751] |
| ≤ 2000 | CC(C)Oc1ccc(C(=O)N2CCC3(CC2)NCCn2c(C(F)(F)F)ccc23)cc1F [Compound 477] |

| IC50 [nM] | SMILES |
| --- | --- |
| ≤ 2000 | CC(C)S(=O)(=O)c1ccc(C(=O)N2CCC3(CC2)NC(C)(C)Cn2c(C(=O)C(F)(F)F)ccc23)cc1 [Compound 557] |
| ≤ 2000 | Cc1cc(C(=O)N2CCC3(CC2)c2ccc(C(F)(F)F)n2CCN3C)ccc1OCCO [Compound 335] |
| ≤ 2000 | CC(=O)c1ccc2n1CCN(C)C21CCN(C(=O)c2ccc(OCCC(C)C)cc2)CC1 [Compound 219] |
| 2000 to 5000 | CC(C)Oc1ccc(C(=O)N2CCC3(CC2)NCCn2c(C(F)(F)F)ccc23)cc1 [Compound 273] |
| ≤ 2000 | Cc1cc(N2CCCC2)n2ncc(C(=O)N3CCC4(CC3)c3ccc(C(F)(F)F)n3CCN4C)c2n1 [Compound 378] |
| 2000 to 5000 | Cc1ccnc2c(C(=O)N3CCC4(CC3)c3ccc(C(F)(F)F)n3CCN4C)cnn12 [Compound 731] |
| 2000 to 5000 | COc1cc(C(=O)N2CCC3(CC2)NCCn2c(C(F)(F)F)ccc23)ccc1OC(C)(C)C [Compound 435] |
| 2000 to 5000 | CCc1ccc(C(=O)N2CCC3(CC2)c2ccc(C(C)=O)n2CCN3C)cc1OC [Compound 382] |
| ≤ 2000 | CN1CCn2c(C(F)(F)F)ccc2C12CCN(C(=O)c1ccc(S(=O)(=O)C(C)(C)C)cc1)CC2 [Compound 441] |
| ≤ 2000 | CCNc1ccnc2c(C(=O)N3CCC4(CC3)c3ccc(C(F)(F)F)n3CCN4C)cnn12 [Compound 481] |
| ≤ 2000 | CN1CCn2c(C(=O)C(C)(C)C)ccc2C12CCN(C(=O)c1ccc(S(=O)(=O)C(F)(F)F)cc1)CC2 [Compound 93] |
| ≤ 2000 | COc1ccc(C(=O)N2CCC3(CC2)c2ccc(C(=O)C4(C)CC4)n2CCN3C)cc1C [Compound 276] |
| ≤ 2000 | CC(C)Oc1ccc(C(=O)N2CCC3(CC2)NCCn2c(C(F)(F)F)ccc23)c(F)c1 [Compound 367] |
| ≤ 2000 | CC1(C)Cn2c(C(=O)C(F)(F)F)ccc2C2(CCN(C(=O)c3ccc(C4CCCCC4)cc3)CC2)N1 [Compound 563] |
| ≤ 2000 | CN1CCn2c(C(F)(F)F)ccc2C12CCN(C(=O)c1cccnc1N1CCCCC1)CC2 [Compound 346] |
| ≤ 2000 | Cc1cc(C(=O)N2CCC3(CC2)c2ccc(C(=O)C4(C)CC4)n2CCN3C)ccc1O [Compound 161] |
| ≤ 2000 | CN1CCn2c(C(=O)C(F)(F)F)ccc2C12CCN(C(=O)c1ccc(OCc3ccccc3)cc1)CC2 [Compound 369] |
| ≤ 2000 | COc1ccc(-c2ccc(C(=O)N3CCC4(CC3)c3ccc(C(=O)C(F)(F)F)n3CCN4C)cc2C)cc1 [Compound 728] |
